Data: paper PMC3569412, “In Vivo Imaging with Fluorescent Smart Probes to Assess Treatment Strategies for Acute Pancreatitis” (PLoS ONE, 2013)

Assays:
h cathepsin B = h cathepsin B (Homo sapiens, UniProt P07858); experiment: protease selectivity panel, enzyme activity assay; assay type: biochemical; details: 1 h pre-incubation RT
From the text: (§1) The three drug-like compounds tested in the optical molecular imaging model were characterized for selectivity against a panel of recombinant proteases available at Novartis. The biochemical enzyme activity assays were based on the cleavage of peptidic substrates that are fluorescently labeled. In case of rhodamine-110 label fluorescence intensity and in case of PT14 label fluorescence lifetime was used as readout. The effect of the compound on the enzymatic activity was obtained from the linear part of the substrate cleavage progress curve at substrate concentrations well below KM, typically at 1 µM. All enzyme assays were conducted in 384-well plates with a final assay volume of 25 µl. Enzyme and compound (11 different concentrations from 100 µM to 0.0003 µM) were pre-incubated for one hour at room temperature (RT). Subsequently substrate was added and incubated for 1 h at RT prior to measurement.

h cathepsin C = h cathepsin C (Homo sapiens, UniProt P53634); experiment: protease selectivity panel, enzyme activity assay; assay type: biochemical; details: 1 h pre-incubation RT
h cathepsin C, sequence (P53634 25-463): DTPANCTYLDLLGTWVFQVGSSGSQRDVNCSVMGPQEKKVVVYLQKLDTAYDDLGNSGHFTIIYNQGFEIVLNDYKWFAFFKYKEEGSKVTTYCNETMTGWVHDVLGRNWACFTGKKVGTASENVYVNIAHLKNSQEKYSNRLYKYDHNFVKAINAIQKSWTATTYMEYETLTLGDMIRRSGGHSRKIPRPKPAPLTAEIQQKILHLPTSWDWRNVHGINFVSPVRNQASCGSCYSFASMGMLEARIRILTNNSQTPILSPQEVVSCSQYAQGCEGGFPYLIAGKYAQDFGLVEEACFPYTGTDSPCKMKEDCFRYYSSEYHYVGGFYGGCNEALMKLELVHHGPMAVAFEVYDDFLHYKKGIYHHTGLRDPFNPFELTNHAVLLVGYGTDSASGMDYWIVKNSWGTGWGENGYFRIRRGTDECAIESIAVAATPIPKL
From the text: as §1

h cathepsin G = h cathepsin G (Homo sapiens, UniProt P08311); experiment: protease selectivity panel, enzyme activity assay; assay type: biochemical; details: 1 h pre-incubation RT
h cathepsin G, sequence (P08311 21-255): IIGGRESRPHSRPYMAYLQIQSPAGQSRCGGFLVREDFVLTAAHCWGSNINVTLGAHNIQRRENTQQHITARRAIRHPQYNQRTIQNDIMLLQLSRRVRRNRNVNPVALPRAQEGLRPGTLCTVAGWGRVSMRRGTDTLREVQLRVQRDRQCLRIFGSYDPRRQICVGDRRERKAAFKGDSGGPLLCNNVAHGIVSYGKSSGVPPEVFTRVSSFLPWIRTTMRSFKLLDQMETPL
From the text: as §1

h cathepsin K = h cathepsin K (Homo sapiens, UniProt P43235); experiment: protease selectivity panel, enzyme activity assay; assay type: biochemical; details: 1 h pre-incubation RT
h cathepsin K, sequence (P43235 115-329): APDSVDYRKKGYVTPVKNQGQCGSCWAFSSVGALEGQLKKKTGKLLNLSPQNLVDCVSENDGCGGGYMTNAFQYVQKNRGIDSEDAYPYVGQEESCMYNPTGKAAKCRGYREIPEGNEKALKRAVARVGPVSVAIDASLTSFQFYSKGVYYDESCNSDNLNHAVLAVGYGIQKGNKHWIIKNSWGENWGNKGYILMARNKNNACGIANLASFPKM
From the text: as §1

h cathepsin L = h cathepsin L (Homo sapiens, UniProt P07711); experiment: protease selectivity panel, enzyme activity assay; assay type: biochemical; details: 1 h pre-incubation RT
h cathepsin L, sequence (P07711 114-333): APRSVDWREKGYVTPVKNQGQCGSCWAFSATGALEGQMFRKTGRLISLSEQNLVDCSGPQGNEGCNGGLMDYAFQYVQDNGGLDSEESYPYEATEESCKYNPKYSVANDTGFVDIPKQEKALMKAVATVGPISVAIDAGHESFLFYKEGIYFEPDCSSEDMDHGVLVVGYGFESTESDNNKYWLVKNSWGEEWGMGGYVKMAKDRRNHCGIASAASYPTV
From the text: as §1

h cathepsin S = h cathepsin S (Homo sapiens, UniProt P25774); experiment: protease selectivity panel, enzyme activity assay; assay type: biochemical; details: 1 h pre-incubation RT
h cathepsin S, sequence (P25774 115-331): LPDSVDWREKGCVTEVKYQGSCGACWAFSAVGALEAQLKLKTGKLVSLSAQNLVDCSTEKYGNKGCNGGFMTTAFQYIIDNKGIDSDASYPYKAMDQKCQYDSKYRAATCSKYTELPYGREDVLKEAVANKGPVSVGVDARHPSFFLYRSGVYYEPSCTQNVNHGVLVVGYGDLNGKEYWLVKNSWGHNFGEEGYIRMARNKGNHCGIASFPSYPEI
From the text: as §1

h cationic trypsin = h cationic trypsin (Homo sapiens, UniProt P07477); experiment: protease selectivity panel, enzyme activity assay; assay type: biochemical; details: 1 h pre-incubation RT
From the text: as §1

h chymase = h chymase (Homo sapiens, UniProt P23946); experiment: protease selectivity panel, enzyme activity assay; assay type: biochemical; details: 1 h pre-incubation RT
h chymase, sequence (P23946 22-247): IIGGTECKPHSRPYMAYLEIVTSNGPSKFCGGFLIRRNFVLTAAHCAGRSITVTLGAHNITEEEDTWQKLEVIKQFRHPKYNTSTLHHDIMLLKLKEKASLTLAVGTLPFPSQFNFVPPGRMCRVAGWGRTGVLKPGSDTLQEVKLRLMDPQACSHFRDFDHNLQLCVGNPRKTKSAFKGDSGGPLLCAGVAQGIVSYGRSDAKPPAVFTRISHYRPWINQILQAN
From the text: as §1

h factor VIIa = h factor VIIa (Homo sapiens, UniProt P08709); experiment: protease selectivity panel, enzyme activity assay; assay type: biochemical; details: 1 h pre-incubation RT
From the text: as §1

h factor XIIa = h factor XIIa (Homo sapiens, UniProt P00748); experiment: protease selectivity panel, enzyme activity assay; assay type: biochemical; details: 1 h pre-incubation RT
h factor XIIa, sequence (P00748 373-615 limits assumed): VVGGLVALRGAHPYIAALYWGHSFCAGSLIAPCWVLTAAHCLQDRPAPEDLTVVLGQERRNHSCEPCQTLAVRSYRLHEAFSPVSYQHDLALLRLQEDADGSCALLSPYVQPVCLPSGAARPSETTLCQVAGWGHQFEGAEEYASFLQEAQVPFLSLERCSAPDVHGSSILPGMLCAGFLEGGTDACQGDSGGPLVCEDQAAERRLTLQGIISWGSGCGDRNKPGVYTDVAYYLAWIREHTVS
From the text: as §1

h factor XIa = h factor XIa (Homo sapiens, UniProt P03951); experiment: protease selectivity panel, enzyme activity assay; assay type: biochemical; details: 1 h pre-incubation RT
h factor XIa, sequence (P03951 388-625 limits assumed): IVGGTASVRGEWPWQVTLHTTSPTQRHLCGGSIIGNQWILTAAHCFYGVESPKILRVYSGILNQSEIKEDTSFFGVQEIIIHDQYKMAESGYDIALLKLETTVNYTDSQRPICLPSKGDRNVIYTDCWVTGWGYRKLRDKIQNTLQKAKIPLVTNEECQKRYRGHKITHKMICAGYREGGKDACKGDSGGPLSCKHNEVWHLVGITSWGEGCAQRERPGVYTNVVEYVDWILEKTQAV
From the text: as §1

h factor Xa = h factor Xa (Homo sapiens, UniProt P00742); experiment: protease selectivity panel, enzyme activity assay; assay type: biochemical; details: 1 h pre-incubation RT
h factor Xa, sequence (P00742 235-488 limits assumed): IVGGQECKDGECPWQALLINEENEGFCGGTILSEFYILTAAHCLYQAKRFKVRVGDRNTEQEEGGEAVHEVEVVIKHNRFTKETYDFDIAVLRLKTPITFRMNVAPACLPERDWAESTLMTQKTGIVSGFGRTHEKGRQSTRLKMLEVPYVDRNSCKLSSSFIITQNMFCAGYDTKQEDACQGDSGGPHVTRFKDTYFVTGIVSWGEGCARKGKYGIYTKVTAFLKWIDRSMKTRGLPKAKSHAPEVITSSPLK
h factor Xa, sequence (P00742 41-179 partner limits assumed): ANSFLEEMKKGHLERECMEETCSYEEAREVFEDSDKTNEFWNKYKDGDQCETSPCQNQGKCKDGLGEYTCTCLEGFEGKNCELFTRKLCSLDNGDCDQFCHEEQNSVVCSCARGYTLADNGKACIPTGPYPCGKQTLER
From the text: as §1

h kallikrein 1 = h kallikrein 1 (Homo sapiens, UniProt P06870); experiment: protease selectivity panel, enzyme activity assay; assay type: biochemical; details: 1 h pre-incubation RT
h kallikrein 1, sequence (P06870 25-262): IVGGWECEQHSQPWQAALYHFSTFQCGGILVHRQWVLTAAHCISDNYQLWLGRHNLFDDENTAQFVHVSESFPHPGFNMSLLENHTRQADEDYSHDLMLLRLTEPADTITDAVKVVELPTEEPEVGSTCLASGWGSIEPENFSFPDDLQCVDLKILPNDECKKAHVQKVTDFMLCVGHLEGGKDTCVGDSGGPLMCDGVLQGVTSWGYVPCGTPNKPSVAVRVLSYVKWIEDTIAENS
From the text: as §1

h kallikrein 5 = h kallikrein 5 (Homo sapiens, UniProt Q9Y337); experiment: protease selectivity panel, enzyme activity assay; assay type: biochemical; details: 1 h pre-incubation RT
h kallikrein 5, sequence (Q9Y337 23-293): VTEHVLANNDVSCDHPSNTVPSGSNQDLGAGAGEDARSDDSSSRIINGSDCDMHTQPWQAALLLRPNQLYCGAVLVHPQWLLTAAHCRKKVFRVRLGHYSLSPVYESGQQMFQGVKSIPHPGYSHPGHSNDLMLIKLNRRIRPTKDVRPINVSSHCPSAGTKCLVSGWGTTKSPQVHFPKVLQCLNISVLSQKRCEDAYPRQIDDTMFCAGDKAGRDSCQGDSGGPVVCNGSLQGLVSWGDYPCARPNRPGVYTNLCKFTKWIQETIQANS
From the text: as §1

h kallikrein 7 = h kallikrein 7 (Homo sapiens, UniProt P49862); experiment: protease selectivity panel, enzyme activity assay; assay type: biochemical; details: 1 h pre-incubation RT
h kallikrein 7, sequence (P49862 30-253): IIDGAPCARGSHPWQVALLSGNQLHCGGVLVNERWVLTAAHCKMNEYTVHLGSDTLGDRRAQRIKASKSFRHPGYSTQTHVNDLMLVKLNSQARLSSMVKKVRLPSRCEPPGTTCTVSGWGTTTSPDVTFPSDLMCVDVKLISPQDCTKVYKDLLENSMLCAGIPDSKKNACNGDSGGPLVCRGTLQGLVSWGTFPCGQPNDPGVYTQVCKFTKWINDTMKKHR
From the text: as §1

h matriptase = h matriptase (Homo sapiens, UniProt Q9Y5Y6); experiment: protease selectivity panel, enzyme activity assay; assay type: biochemical; details: 1 h pre-incubation RT
h matriptase, sequence (Q9Y5Y6 whole entry): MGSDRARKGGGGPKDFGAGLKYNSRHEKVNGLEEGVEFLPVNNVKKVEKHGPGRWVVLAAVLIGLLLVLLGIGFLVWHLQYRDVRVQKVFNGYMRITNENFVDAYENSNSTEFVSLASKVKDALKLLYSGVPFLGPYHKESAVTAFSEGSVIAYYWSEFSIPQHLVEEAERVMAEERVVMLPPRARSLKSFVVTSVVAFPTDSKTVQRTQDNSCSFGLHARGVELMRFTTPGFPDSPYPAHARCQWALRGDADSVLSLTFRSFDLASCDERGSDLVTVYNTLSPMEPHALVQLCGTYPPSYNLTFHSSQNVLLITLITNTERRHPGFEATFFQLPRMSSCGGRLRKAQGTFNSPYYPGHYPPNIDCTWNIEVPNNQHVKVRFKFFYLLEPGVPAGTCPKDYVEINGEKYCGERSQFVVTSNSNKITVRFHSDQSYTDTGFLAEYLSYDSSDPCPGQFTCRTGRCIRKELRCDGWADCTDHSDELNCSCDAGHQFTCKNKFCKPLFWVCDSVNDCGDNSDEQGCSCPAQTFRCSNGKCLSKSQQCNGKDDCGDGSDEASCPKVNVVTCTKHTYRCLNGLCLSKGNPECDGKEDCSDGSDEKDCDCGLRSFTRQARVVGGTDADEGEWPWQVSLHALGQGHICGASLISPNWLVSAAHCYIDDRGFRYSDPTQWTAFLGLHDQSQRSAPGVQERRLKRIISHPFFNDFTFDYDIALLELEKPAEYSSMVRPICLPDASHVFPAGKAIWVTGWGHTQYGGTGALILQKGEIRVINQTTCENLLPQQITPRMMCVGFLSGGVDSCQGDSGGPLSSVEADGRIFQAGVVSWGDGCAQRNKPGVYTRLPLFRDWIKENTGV
From the text: as §1

h neutrophil elastase = h neutrophil elastase (Homo sapiens, UniProt P08246); experiment: protease selectivity panel, enzyme activity assay; assay type: biochemical; details: 1 h pre-incubation RT
h neutrophil elastase, sequence (P08246 30-267): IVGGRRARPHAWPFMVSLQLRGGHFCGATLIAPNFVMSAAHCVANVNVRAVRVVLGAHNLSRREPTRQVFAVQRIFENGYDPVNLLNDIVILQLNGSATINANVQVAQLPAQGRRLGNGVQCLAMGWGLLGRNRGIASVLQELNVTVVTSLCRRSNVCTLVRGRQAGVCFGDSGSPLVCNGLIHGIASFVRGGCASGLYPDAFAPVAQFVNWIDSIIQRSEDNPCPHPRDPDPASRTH
From the text: as §1

h plasma kallikrein = h plasma kallikrein (Homo sapiens, UniProt P03952); experiment: protease selectivity panel, enzyme activity assay; assay type: biochemical; details: 1 h pre-incubation RT
From the text: as §1

h proteinase 3 = h proteinase 3 (Homo sapiens, UniProt P24158); experiment: protease selectivity panel, enzyme activity assay; assay type: biochemical; details: 1 h pre-incubation RT
h proteinase 3, sequence (P24158 28-256): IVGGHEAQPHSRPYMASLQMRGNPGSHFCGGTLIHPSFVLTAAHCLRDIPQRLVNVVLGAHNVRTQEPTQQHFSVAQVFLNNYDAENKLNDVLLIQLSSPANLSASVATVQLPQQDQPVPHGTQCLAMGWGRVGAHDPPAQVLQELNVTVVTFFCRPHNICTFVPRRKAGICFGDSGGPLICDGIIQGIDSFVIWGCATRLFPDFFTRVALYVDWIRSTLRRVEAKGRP
From the text: as §1

h chymotrypsin = experiment: protease selectivity panel, enzyme activity assay; assay type: biochemical, human; details: 1 h pre-incubation RT
From the text: as §1

h pancreatic elastase = experiment: protease selectivity panel, enzyme activity assay; assay type: biochemical, human; details: 1 h pre-incubation RT
From the text: as §1

[1] = test system: trypsin activity in rat pancreas; experiment: in vivo optical imaging of activatable probe signal in pancreas, caerulein-injection pancreatitis model; details: Camostat 300 mg/kg orally; vs untreated caerulein animals; P<0.001
Description: 280–320 g female Sprague Dawley rats were received from Charles Rivers Laboratory. Animals were maintained in a facility with a controlled temperature (21–24°C) and lighting (12∶12 h light: dark cycle). Animals were placed on a chlorophyll-free diet (Harlan TK2916) 10 days prior and for the duration of the imaging study to reduce the amount of autofluorescence and had free access to drinking water. One day prior to the experiment, animals were shaved at the abdomen for imaging studies. The pancreatitis model was induced by hyperstimulation with the cholecystokinin (CCK) analog caerulein (Sigma-Aldrich, St. Louis, MO). […]
(§2) In vivo optical imaging studies were conducted using a spectral imaging system, Maestro (Perkin Elmer, Boston, MA). […] Animals were imaged before the start of the study for background/autofluorescence, and at 20 minutes after the mPEG-PL-Cy5.5 probe administration for basal increase in fluorescence due to probe administration. […]
Region of the pancreas and liver were determined and defined from whole body clean images acquired after sacrificing the animals, and used on all corresponding in vivo images in the same animal. Fluorescent intensity at various time points from the same animal were normalized by fluorescence intensity determined before the start of the caerulein insult and the change in signal intensity was then plotted as a function of time.

[2] = test system: trypsin activity in rat pancreas; experiment: ex vivo fluorescence imaging of excised pancreas (total signal intensity of activated probe); assay type: in vivo; details: Camostat 300 mg/kg orally; vs untreated animals; P<0.01
Description: 280–320 g female Sprague Dawley rats were received from Charles Rivers Laboratory. Animals were maintained in a facility with a controlled temperature (21–24°C) and lighting (12∶12 h light: dark cycle). Animals were placed on a chlorophyll-free diet (Harlan TK2916) 10 days prior and for the duration of the imaging study to reduce the amount of autofluorescence and had free access to drinking water. One day prior to the experiment, animals were shaved at the abdomen for imaging studies. The pancreatitis model was induced by hyperstimulation with the cholecystokinin (CCK) analog caerulein (Sigma-Aldrich, St. Louis, MO). […] For studies with Novartis166 and Novartis848, varying concentrations, in a solution, were administered intraperitonealy (IP) only once, one hour before caerulein administration. Self-quenched protease activatable mPEG-PL-Cy5.5 probe was administered to all animals via the tail vein at a dose of 80 nmol/kg 40 minutes prior to the start of caerulein administration for measuring the amount of activated trypsin in the pancreas. […]
as §2

[3] = test system: rat caerulein-injection pancreatitis model; experiment: in vivo edema imaging with blood pool agent Angiosense 680; details: Camostat 300 mg/kg orally; three caerulein doses SC
trypsin [4] = experiment: assessment of trypsin concentration in pancreas extracts; assay type: in vivo, rat; details: Camostat 300 mg/kg orally; vs untreated saline animals
Description: The pancreas was removed from the euthanized animals, weighted and transferred into Dispomix tubes (Miltenyi Biotec, Bergisch Gladbach, Germany). After the addition of ice-cold PBS buffer (1 µl per […]), the pancreas was homogenized with a gentleMACS™ Dissociator (Miltenyi Biotec, Bergisch Gladbach, Germany). The homogenate was centrifuged at 4°C and 20,000 g for 10 min. The supernatant was stored at −20°C. The activity assay was performed at room temperature in 384-well plates in a total assay volume of 20 µl per well. For fluorescence quantification a Safire2 (Tecan, Maennedorf, Switzerland) instrument was used with fluorescence excitation and emission wavelengths of 485 nm and 535 nm, respectively. 10 µl of dilutions of extracts (typical range: 1∶500 to 1∶2,000) were transferred to 384 well assay plates. […] The enzymatic activity in the pancreatic extract was obtained from the linear progression curves and determined after one hour. Signal-to-background (S/B) values within the linear range of the assay signal were selected to calculate the trypsin concentrations of the extract analyzed. […] The amount of trypsin was calculated by transforming S/B levels obtained in the activity assay of extract dilutions fulfilling initial enzyme velocity criteria into trypsin concentration values via a calibration curve using recombinant rat trypsin S1-94.

trypsin [5] = experiment: mPEG-PL-Cy5.5 probe activation by pancreatic enzymes with or without SPINK1; assay type: biochemical; details: 0.2 µM probe, 100 nM enzyme, 1 µM SPINK1
Description: All enzyme assays were conducted in 384-well plates with a final substrate ( = mPEG-PL-Cy5.5 probe) concentration of 0.2 µM diluted in the appropriate assay buffer in a final assay volume of 25 µl. Enzyme and, in cases where applied, SPINK-1 (final assay concentration: 1 µM) were pre-incubated for one hour at room temperature. Subsequently substrate was added and incubated for 3 h at 37°C prior to measurement. All enzymes were either commercially obtained or prepared as described previously, [17], [18], [19].
Enzyme, SPINK-1 and substrate solutions were transferred to 384-well plates by means of a CyBi Well pipettor (CyBio, Jena, Germany). Plate measurements were conducted by the means of a Safire2 microplate reader (TECAN, Maennedorf, Switzerland) and wavelengths of 680 nm and 700 nm were taken for fluorescence excitation and emission acquisition, respectively. The bandwidths were set to 10 nm in both the excitation and the emission path. The fluorescence in each well was excited by three flashes per measurement.

`CN(C)C(=O)COC(=O)Cc1ccc(OC(=O)c2ccc(NC(=N)N)cc2)cc1` [Camostat] gave an IC50 (h cathepsin B) greater than 50 µM, an IC50 (h cathepsin C) greater than 50 µM and an IC50 (h cathepsin G) of 44.6 µM. It also gave an IC50 (h cathepsin K) greater than 50 µM, an IC50 (h cathepsin L) greater than 50 µM and an IC50 (h cathepsin S) greater than 50 µM. For the same compound, the IC50 (h cationic trypsin) was 0.0028 µM, the IC50 (h chymase) was greater than 50 µM and the IC50 (h factor VIIa) was 0.531 µM. The IC50 (h factor XIIa) was 8 µM, the IC50 (h factor XIa) was 0.008 µM and the IC50 (h factor Xa) was 6.6 µM. The IC50 (h kallikrein 1) was 72.4 µM, the IC50 (h kallikrein 5) was 0.1 µM and the IC50 (h kallikrein 7) was 41.5 µM. For the same compound, the IC50 (h matriptase) was 0.0065 µM, the IC50 (h neutrophil elastase) was 91.4 µM and the IC50 (h plasma kallikrein) was 0.002 µM. For the same compound, the IC50 (h proteinase 3) was greater than 50 µM, the IC50 (h chymotrypsin) was 12.2 µM and the IC50 (h pancreatic elastase) was greater than 50 µM. The “in vivo mPEG-PL-Cy5.5 probe activation in pancreas” value [1] was “reduced probe activation”, the “probe activation in dissected pancreas (ex vivo)” value [2] was “suppressed” and the “Angiosense 680 signal in pancreas (edema imaging)” value [3] was “no signal enhancement”. For the same compound, the “amount of enzymatically active trypsin in pancreas” value (trypsin [4]) was “significant reduction in the amount of active trypsin”.
“SPINK1: highly specific trypsin inhibiting protein; endogenous trypsin inhibitor Kazal type 1 (DSLGREAKCYNELNGCTKIYDPVCGTDGNTYPNECVLCFENRKRQTSILIQKSGPC; UniProt P00995 24-79, looked up)” was tested, and the “protease activation of mPEG-PL-Cy5.5 probe by trypsin in the presence of SPINK1” value (trypsin [5]) was “suppressed to background levels”.
